From US20250017881A1, “Fatty acids for ketosis control” (N.V. Nutricia, priority 2022, published 2025)
Entries after “also recorded” stand apart in the source; their conditions may differ.

What was measured:
Assay type in all cases: cell-based
[1] = tested on: mouse liver cells (Hepa1-6 cell line); assay: Ketone production (beta-hydroxybutyrate in medium) by mouse liver cells; settings: for beta-hydroxybutyrate production, fatty acid provided alone: provided alone to liver cells at 1 μM, 5 μM and 10 μM, 6 h ketogenic phase; for beta-hydroxybutyrate production when combined with 100 μM OA, versus 100 μM OA alone: test fatty acid 1 μM to 10 μM (1, 5, 10 μM) + 100 μM oleic acid; for production of ketones from 100 μM fatty acid blend (K-one): test fatty acid within 1 μM to 10 μM + 100 μM fatty acid blend; for ketone production in the absence of a ketogenic fat blend: 5 μM each, alone or in combination
Procedure: An assay to measure ketone production in mouse liver cells (Hepa1-6 cell line) was used wherein cells were first grown to a monolayer (growth phase), then exposed to starvation to deplete cellular lipid stores and subsequently brought into a ketogenic phase wherein cells were cultured in presence of oleic acid or a ketogenic diet fat blend with or without the presence of one of C2, C4, C6 fatty acids, citrate and nicotinamide riboside (herein also referred to as C2, C4, C6, citrate and NR). The ketone body production was subsequently determined by measurement of beta-hydroxybutyrate in the cell culture medium according to the details set out below:
Starvation phase: At the end of the growth phase the cells formed a monolayer. The medium was exchanged for DMEM containing 1 mM glucose and antibiotics (1% penicillin & streptomycin) but no FBS. The medium was further supplemented with L-carnitine (a required co-factor for the uptake of fatty acids into the mitochondria, where fatty acids are turned into ketones). The cells were incubated in this medium for 24 hours. During this time, the cells were vastly deprived of glucose, lipids and hormones contained in FBS, forcing them to consume and empty their lipid stores. […] Moreover, the starvation phase is thought to induce specific metabolic changes that maximize the production of ketones.
Ketogenic phase: At the end of the starvation phase, the medium was exchanged for Krebs-Henseleit buffer (KHB) supplemented with the test nutrients (single fatty acids and fatty acid blend shown in table 1) and L-carnitine.
The fatty acid blend is contained in a similar fatty acid composition to the one used in a ketogenic diet (K-one). The content of every fatty acid in the blend is given as the molar ratio to Oleic acid (OA), whose molar content is set to 1. Dilutions of this blend were used to determine the dose response curve in FIGS. 1B and 1D. C2 and C4 are not included in the blend.
KHB is composed of salts and bicarbonate as a chemical buffer to maintain the osmotic pressure and acidity (pH) at physiological levels. Medium and long chain fatty acids are coupled to bovine serum albumin prior to the assay to make them soluble in KHB and allow their efficient uptake by the cells. The coupling is physiological since in humans, medium and long chain fatty acids are also normally coupled to albumin for transport in the blood circulation. Short chain fatty acids (C2, C4) were not coupled to albumin in the assay since they are water-soluble and circulate freely in humans. The cells were incubated for 6 hours at 37° C. During this time, they produce ketones from the test nutrients with little to no interference from other nutrients and secrete β-hydroxybutyrate (β-Hb) into the medium.
β-Hb measurements: At the end of the ketogenic phase, the whole medium was collected and dried by vacuum centrifugation for 20 hours at 21° C. The dry pellet was resuspended in a small volume of assay buffer to yield a 10-20-fold higher β-Hb concentration than in the medium. The samples were deproteinized using spin columns to measure the free unbound fraction of R-Hb. […] The Fluorescence was measured on a fluorescence microplate reader and is directly proportional to the β-Hb concentration in the sample within a range of 0.1 μM to 50 μM β-Hb.

[2] = tested on: mouse liver cells (Hepa1-6 cell line); assay: Propionate viability assay (ATP content, bioluminescence)
Procedure: Starvation phase: At the end of the growth phase the cells formed a monolayer. The medium was exchanged for DMEM containing 1 mM glucose and antibiotics (1% penicillin & streptomycin) but no FBS. The medium was further supplemented with L-carnitine (a required co-factor for the uptake of fatty acids into the mitochondria, where fatty acids are turned into ketones). […] The cells were incubated in this medium for 24 hours.

[3] = tested on: NAD+ depleted mouse liver cells (Hepa1-6 cells); assay: NAD+ replenishment of NAD+ depleted liver cells by NAD+ precursors
Procedure: An assay was developed to measure NAD+ replenishment of NAD+ depleted mouse liver cells (Hepa1-6 cells) by NAD+ precursors under ketogenic diet-like conditions. In this assay, mouse liver cells were starved of glucose and depleted of NAD+ through incubation in a very low glucose (1 mM) medium free of vitamin B3, Trp and FBS and supplemented with 10 nM of an NAD+ depleting drug called FK866. Thereafter, the cells were fed with NR or NAM or Niacin (provided as a combination of NAM and nicotinic acid in a 1:1 molar ratio) or Trp to replenish the cells with NAD+. At the end of the supplementation phase, the cells were scraped and extracted using the NAD+ extraction buffer of the EnzyChrom™ NAD/NADH Assay Kit from BioAssay Systems. The NAD+ content of the cells was determined with the same kit following the manufacturer's manual. The NAD+ measurement is based on a […] reaction, in which NAD+ is reduced to NADH, which in turn reduces a formazan (MTT) reagent. The intensity of the reduced product color, measured at 565 nm, is proportional to the NAD+ concentration in the sample. This assay is highly specific for NAD+ and has minimal interference (<1%) by NADP+ or NADPH.

[4] = tested on: NAD+ depleted mouse liver cells; assay: Ketone production of NAD+ depleted liver cells replenished with NR; settings: NR 10 μM
Procedure: To measure the impact of replenishing NAD+ in liver cells with NR on ketone production, mouse liver cells were nutrient-deprived in medium containing low (1 mM) glucose and L-carnitine, but no fetal bovine serum, and no NAD+ precursors in the form of vitamin B3 (Niacin, NA, NAM) or Trp, Concomitantly the cells were treated with the NAD+ depleting drug FK866. These conditions created ketogenic diet like nutrient conditions and depleted the cells of NAD+. After 18 hours of incubation, FK866 was removed from the medium and a concentration range of NR was added to replenish NAD+ in liver cells. After 24 hours, the cells were switched to Krebs-Henseleit buffer (KHB) containing L-carnitine and a concentration range (1 μM to 100 μM) of oleic acid, a long chain fatty acid, for 6 hours to induce and measure the production and secretion of b-hydroxybutyrate (PHB) into the medium.

In the case of CCCCCCCC/C=C\CCCCCCCC(=O)O [OA, oleic acid, reference compound], the “concentration at which top-level (maximized) ketone production is achieved” value ([1]; ketogenic substrate alone, dose-response curve) is reported as 100 µM.
In the case of CCC(=O)O [C3, propionic acid], the “cytotoxicity, long-term assessment” value ([2]; 300 uM to 10 mM C3, 24-hour starvation plus 6-hour ketogenic phase) is reported as “evident for the entire dose-range”, the “cytotoxicity, short-term exposure” value ([2]; 10 mM C3, 6-hours of exposure (ketogenic phase)) is reported as “Cytotoxicity was already noted” and the “cytotoxicity (ATP content) over the concentration range” value ([2]; C3 to 10 mM as printed) is reported as “dose-dependent increase in cytotoxicity”. The “reduction of beta-hydroxybutyrate yield compared to 100 μM fatty acid blend alone” value ([1]; 1 μM, 5 μM and 10 μM C3 + 100 μM fatty acid blend) was “more than 60%”, the “beta-hydroxybutyrate production, fatty acid provided alone” value [1] was “yielded no PHb” and the “beta-hydroxybutyrate production when combined with 100 μM OA, versus 100 μM OA alone” value [1] was “less PHb than 100 μM OA alone; also recorded: inhibits the top-level production of ketones”. For the same compound, the “production of ketones from 100 μM fatty acid blend (K-one)” value (“production of ketones … (K-one)” for short) [1] was “dose-dependent manner; also recorded: inhibits the top-level production of ketones”.
With O=C(O)CC(O)(CC(=O)O)C(=O)O [citrate] the “increase of ketone production from the fat blend” value ([1]; 200 μM to 1000 μM citrate + 100 μM fatty acid blend (K-one)) was 10-20% and the “ketone production, citrate provided alone” value ([1]; citrate alone, no fat blend) was “yielded no ketones”.
In the case of CCCC(=O)O [C4, butyric acid], the “ketone production in the absence of a ketogenic fat blend” value ([1]; no fat blend) is reported as “hardly any ketones”, the “beta-hydroxybutyrate production when combined with 100 μM fatty acid blend, versus blend alone” value ([1]; 10 μM C4 + 100 μM fatty acid blend (K-one)) is reported as “more βHb than providing the 100 μM fatty acid blend alone” and the “ketone production from a concentration range of fatty acid blend” value ([1]; fixed 10 μM C4 + 1 μM to 100 μM fatty acid blend (K-one), versus blend without C4) is reported as “increasingly enhanced the production of ketones”. For the same compound, the “beta-hydroxybutyrate production, fatty acid provided alone” value [1] was “hardly yielded any PHb”, the “beta-hydroxybutyrate production when combined with 100 μM OA, versus 100 μM OA alone” value [1] was “more PHb than providing 100 μM OA alone; also recorded: potentiates the production of ketones” and the “production of ketones … (K-one)” value [1] was “potentiates the production of ketones”.
CC(=O)O [C2, acetic acid] was tested, and the “beta-hydroxybutyrate production when combined with 100 μM fatty acid blend, versus blend alone” value ([1]; 1 μM or 10 μM C2 + 100 μM fatty acid blend (K-one)) was “slightly greater production of PHb”, the “beta-hydroxybutyrate production, fatty acid provided alone” value [1] was “does not yield any ketones” and the “beta-hydroxybutyrate production, fatty acid provided alone” value ([1]; listed as 02) was “virtually no bHB”. For the same compound, the “beta-hydroxybutyrate production when combined with 100 μM OA, versus 100 μM OA alone” value [1] was “more PHb than 100 μM OA alone; also recorded: enhances the production of ketones” and the “production of ketones … (K-one)” value [1] was “enhances the production of ketones”.
For O=C(/C=C/c1cccnc1)NCCCCC1CCN(C(=O)c2ccccc2)CC1 [FK866, reference compound], the “depletion of NAD+ relative to baseline NAD+ content of untreated liver cells” value ([3]; 10 nM FK866, very low glucose medium) was about 70%.
With CCCCCC(=O)O [C6, caproic acid] the “ketone production in the absence of a ketogenic fat blend” value ([1]; no fat blend) was “hardly any ketones”, the “concentration above which the fatty acid starts to be turned as a substrate into beta-hydroxybutyrate” value ([1]; dose-response curve of the fatty acid alone, 1 μM to 100 μM) was “above 10 μM” and the “beta-hydroxybutyrate production when combined with 100 μM OA, versus 100 μM OA alone” value [1] was “potentiates the production of ketones”. The “production of ketones … (K-one)” value [1] was “potentiates the production of ketones”.
For NC(=O)c1ccc[n+]([C@@H]2O[C@H](CO)[C@@H](O)[C@H]2O)c1 [NR, nicotinamide riboside], the “top-level production of ketones” value ([4]; 150 μM and 1000 μM for 24 h, then oleic acid 1 μM to 100 μM for 6 h) was “increased”, the “NAD+ content” value ([4]; 150 μM and 1000 μM, ketogenic diet like nutrient conditions) was “increased” and the “increase of NAD+ content versus equimolar amounts of NAM or Niacin” value ([3]; 1 mM) was “significantly greater extent”. The “increase of NAD+ content versus equimolar amounts of Niacin” value ([3]; lower concentrations below 150 μM) was “greater extent” and the “NAD+ content of NAD+ depleted liver cells after provision” value ([3]; within 24 hours of treatment, concentration range) was “dose-dependently replenishes NAD+ content to and above this baseline”.
